The record followed here is the supplement of paper PMC7840683.

In the test the test system is HepaRG. Description: LDH release cytotoxicity, % of total lysis control; higher = more cytotoxic. The conditions noted are these: 48 h. The procedure, abridged:
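Single-lot HepaRG cells on collagen I-coated 96-well plates were exposed for 48 h in duplicate, in serum-free induction medium with 0.5% DMSO, to eight-point half-log series (test chemicals top 100 µM). Total lysis wells received 0.1% Triton X, and LDH leakage into 50 µL spent medium was read as resorufin fluorescence (CytoTox-ONE, Tecan Safire). Percent cytotoxicity was normalized to on-plate vehicle and total lysis controls and averaged over the duplicates.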
(In general: LDH in the medium is a marker of cell lysis.)

± gives the standard deviation of the averaged measurements.

On to `CCN(Cc1cccc(S(=O)(=O)O)c1)c1ccc(C(=C2C=CC(=[N+](CC)Cc3cccc(S(=O)(=O)O)c3)C=C2)c2ccccc2S(=O)(=O)O)cc1` [FD&C Blue No. 1], for which the LDH release cytotoxicity (0.0204 µM) is -1.63 ± 0.15%; the LDH release cytotoxicity (0.0645 µM) was -0.475 ± 0.088%; the LDH release cytotoxicity (0.203967 µM) is -1.54 ± 0.48%; the LDH release cytotoxicity (0.645 µM) was -1.35 ± 0.38%; the LDH release cytotoxicity (2.03967 µM) was -1.04 ± 0.34%; the LDH release cytotoxicity (6.45 µM) is -0.732 ± 0.83%. In addition, the LDH release cytotoxicity is -1.07 ± 0.46% (20.3967 µM) and -1.76 ± 0.13% (64.5 µM).

On to `OCCCl` [2-Chloroethanol], for which the LDH release cytotoxicity by setting is: (0.03162 µM) -1.15 ± 0.41%; (0.1 µM) -1.03 ± 0.86%; (0.3162278 µM) -1.59 ± 0.33%; (1 µM) -1.39 ± 0.77%; (3.16228 µM) -1.15 ± 0.39%; (10 µM) -0.492 ± 0.48%. For the same molecule, the LDH release cytotoxicity reads like this: (31.6228 µM) -0.514 ± 0.24%; (100 µM) 4.05 ± 0.92%.

As for `COc1cc(C=O)cc2c1C(COC(N)=O)C1(OC(C)=O)ON2CC2C1N2C(C)=O` (stereo not given), the LDH release cytotoxicity (0.03162 µM) is -0.71 ± 0.46%; the LDH release cytotoxicity (0.1 µM) was -0.654 ± 0.1%; the LDH release cytotoxicity (0.3162278 µM) was determined as 1.14 ± 1.2%; the LDH release cytotoxicity (1 µM) amounted to 17.5 ± 1.6%; the LDH release cytotoxicity (3.16228 µM) was determined as 62.9 ± 2.6%; the LDH release cytotoxicity (10 µM) came to 67.8 ± 2.4%. Further, the LDH release cytotoxicity by setting is: (31.6228 µM) 73 ± 2.2%; (100 µM) 73.3 ± 2.3%.

For `Nc1cc(Cl)cc(C(=O)O)c1Cl` [Chloramben], the LDH release cytotoxicity is 0.283 ± 2.4% (0.03162 µM); -1.57 ± 0.016% (0.1 µM); -0.351 ± 2.3% (0.3162278 µM); -0.882 ± 0.8% (1 µM); -1.46 ± 0.83% (3.16228 µM); -0.217 ± 0.85% (10 µM). The LDH release cytotoxicity is, setting by setting: (31.6228 µM) -0.618 ± 0.29%; (100 µM) 0.291 ± 0.12%.

Take `CCCCCCCCCCCC(=O)OC` [Methyl dodecanoate]: the LDH release cytotoxicity by setting is: (0.03162 µM) 0.879 ± 1.4%; (0.1 µM) -1.07 ± 0.59%; (0.3162278 µM) -1.35 ± 0.79%; (1 µM) -1.18 ± 0.72%; (3.16228 µM) -0.971 ± 0.58%; (10 µM) -0.971 ± 1.3%. Moreover, the LDH release cytotoxicity (31.6228 µM) was -1.41 ± 0.49% and the LDH release cytotoxicity (100 µM) turned out to be 0.025 ± 0.27%.

Regarding `CC(C)Oc1cccc(NC(=O)c2ccccc2C(F)(F)F)c1` [Flutolanil], the LDH release cytotoxicity was -1.37 ± 1.1% (0.031623 µM); -2.54 ± 0.44% (0.1 µM); -3.14 ± 0.46% (0.316228 µM); -2.18 ± 0.77% (1 µM); -1.81 ± 1.2% (3.16228 µM); -1.86 ± 0.057% (10 µM). Further, the LDH release cytotoxicity is -0.343 ± 0.59% (31.6228 µM) and 3.01 ± 0.1% (100 µM).

Turning to `CC(C)N(C(=O)COc1nnc(C(F)(F)F)s1)c1ccc(F)cc1` [Flufenacet], the LDH release cytotoxicity is -2.32 ± 1.1% (0.03162 µM); -2.03 ± 0.074% (0.1 µM); -2.3 ± 0.27% (0.3162278 µM); -2.01 ± 0.82% (1 µM); -2.29 ± 0.33% (3.16228 µM); -1.38 ± 0.041% (10 µM). Besides, the LDH release cytotoxicity amounted to 0.458 ± 1.1% (31.6228 µM) and 1.71 ± 0.18% (100 µM).

Regarding `O=C(NC(Cc1ccccc1)C(O)C(=O)N1CC(O)C(O)C1)c1cc2cc(Cl)ccc2[nH]1` (stereo not given) [Ingliforib], the LDH release cytotoxicity was -1.12 ± 1.5% (0.03162 µM); -2 ± 0.27% (0.1 µM); -1.41 ± 1.2% (0.3162278 µM); -0.89 ± 0.66% (1 µM); -0.718 ± 0.6% (3.16228 µM); -0.896 ± 0.48% (10 µM). Also, the LDH release cytotoxicity was -1.06 ± 0.19% (31.6228 µM) and 8.47 ± 1.3% (100 µM).

Consider `O=C(O)c1nc(Cl)ccc1Cl` [Clopyralid], for which the LDH release cytotoxicity runs as follows: (0.03162 µM) -0.598 ± 0.35%; (0.1 µM) -1.08 ± 0.48%; (0.3162278 µM) -0.606 ± 0.19%; (1 µM) -1.03 ± 0.57%; (3.16228 µM) -0.337 ± 0.046%; (10 µM) 0.0712 ± 0.39%. Also, the LDH release cytotoxicity (31.6228 µM) came to 0.653 ± 1.2% and the LDH release cytotoxicity (100 µM) was determined as 2.21 ± 0.38%.

Regarding `COc1ccc(S(=O)(=O)N2C(=O)C(c3ccccc3OC)(N3CC(O)CC3C(=O)N(C)C)c3cc(Cl)ccc32)c(OC)c1` (stereo not given) [Nelivaptan], the LDH release cytotoxicity reads like this: (0.03162 µM) -0.817 ± 0.14%; (0.1 µM) 0.214 ± 1.6%; (0.3162278 µM) 0.146 ± 0.67%; (1 µM) -0.447 ± 0.43%; (3.16228 µM) -0.164 ± 0.61%; (10 µM) 0.998 ± 1.2%. The LDH release cytotoxicity was -0.141 ± 0.64% (31.6228 µM) and -0.056 ± 0.061% (100 µM).

For `CCCCC(CC)COP(=O)(OCC(CC)CCCC)OCC(CC)CCCC` (stereo not given) [Tris(2-ethylhexyl) phosphate], the LDH release cytotoxicity was -1.762 ± 0.016% (0.03162 µM); -1.14 ± 0.93% (0.1 µM); -1.21 ± 1.2% (0.3162278 µM); -1.28 ± 1.1% (1 µM); -1.23 ± 0.96% (3.16228 µM); -1.26 ± 1.1% (10 µM). For the same molecule, the LDH release cytotoxicity was -0.783 ± 1.4% (31.6228 µM) and 0.473 ± 0.56% (100 µM).

For `CCOP(=S)(OCC)Oc1nc(Cl)n(C(C)C)n1` [Isazofos], the LDH release cytotoxicity runs as follows: (0.031623 µM) 0.0296 ± 0.94%; (0.1 µM) -1.65 ± 0.25%; (0.316228 µM) -2.1 ± 1%; (1 µM) -2.59 ± 0.06%; (3.16228 µM) -3.48 ± 0.65%; (10 µM) -3 ± 0.69%. Also, the LDH release cytotoxicity reads like this: (31.6228 µM) -3.67 ± 1.1%; (100 µM) 1.66 ± 0.81%.

Take `CCCCOC(=O)c1ccccc1C(=O)O` [Monobutyl phthalate]: the LDH release cytotoxicity reads like this: (0.03162 µM) -2.25 ± 1%; (0.1 µM) -2.21 ± 0.79%; (0.3162278 µM) -2.76 ± 0.98%; (1 µM) -3.09 ± 0.93%; (3.16228 µM) -2.68 ± 1.3%; (10 µM) -2.9 ± 1.1%. Besides, the LDH release cytotoxicity is, setting by setting: (31.6228 µM) -2.43 ± 1.4%; (100 µM) -0.95 ± 1.3%.

Regarding `O=C1C2(Cl)C3(Cl)C4(Cl)C(Cl)(Cl)C5(Cl)C3(Cl)C1(Cl)C5(Cl)C24Cl` (stereo not given) [Kepone], the LDH release cytotoxicity runs as follows: (0.03162 µM) -0.309 ± 0.28%; (0.1 µM) 0.458 ± 0.64%; (0.3162278 µM) -0.526 ± 0.16%; (1 µM) -0.604 ± 0.8%; (3.16228 µM) -0.552 ± 0.22%; (10 µM) -0.815 ± 0.31%. For the same molecule, the LDH release cytotoxicity (31.6228 µM) stood at 8.06 ± 1.2% and the LDH release cytotoxicity (100 µM) was found to be 90.1 ± 3.4%.

As to `OC[C@@H](O)[C@@H](O)[C@H](O)[C@H](O)CO` [D-Mannitol], the LDH release cytotoxicity (0.031623 µM) was -0.135 ± 0.17%; the LDH release cytotoxicity (0.1 µM) is -2.88 ± 0.9%; the LDH release cytotoxicity (0.316228 µM) was -2.85 ± 0.69%; the LDH release cytotoxicity (1 µM) was -2.73 ± 0.41%; the LDH release cytotoxicity (3.16228 µM) is -2.39 ± 0.089%; the LDH release cytotoxicity (10 µM) is -1.31 ± 0.43%. Besides, the LDH release cytotoxicity (31.6228 µM) is 0.669 ± 0.23% and the LDH release cytotoxicity (100 µM) was 3.29 ± 0.076%.
